Measured values from patent US6638953B2, “Indole derivatives as 5-HT receptor antagonist” (SmithKline Beecham p.l.c., priority 1995, dated 2003).
Structures can show the parent of a compound that is named as a salt.

Structure (SMILES) | melting point
Cc1ncccc1Oc1ccc(NC(=O)N2CCc3cc(Br)c(C(F)(F)F)cc32)cn1 | 211 to 213 °C
COc1cc2c(cc1C(F)(F)F)N(C(=O)Nc1ccc(-c3ccncc3)cc1)CC2 [Example 5, 1-[(4-Pyridyl)-4-phenyl Carbamoyl]-5-methoxy-6-trifluoromethyl Indoline] | > 210 °C
Cc1cc2c(cc1Cl)N(C(=O)Nc1ccc(C)c(-c3cccnc3)c1)CC2 [Example 23, 6-Chloro-5-methyl-1-(4-methyl-3-(pyrid-3-yl)-phenylcarbamoyl) Indoline] | 202 to 203 °C
COc1cc2c(cc1C(F)(F)F)N(C(=O)Nc1cccc(-c3noc(C)n3)c1)CC2 [Example 27, 5-Methoxy-1-(5-methyl-(1,2-4-oxadiazol-3-yl)-phenylcarbamoyl)-6-trifluoromethyl Indoline] | 203 to 204 °C
COc1cc2c(cc1C(F)(F)F)N(C(=O)Nc1cccc(-c3cncc4ccccc34)c1)CC2 [Example 34, 1-[3-(4-Isoquinolyl)phenylcarbamoyl]-5-methoxy-6-trifluoromethyl Indoline] | 211 to 215 °C
COc1cc2c(cc1C(F)(F)F)N(C(=O)Nc1ccc3c(ccn3-c3ccncc3)c1)CC2 [Example 59, 1-(1-(4-Pyridyl)-5-indolylcarbamoyl)-5-methoxy-6-trifluoromethylindoline] | 206 to 211 °C
COc1cc2c(cc1C(F)(F)F)N(C(=O)Nc1ccc(CSc3ccncc3)cc1)CC2 [Example 60, 5-Methoxy-6-trifluoromethyl-1-[4-(pyridin-4-ylthiomethyl)phenyl Carbamoyl]indoline] | 174 to 175 °C
COc1cc2c(cc1C(F)(F)F)N(C(=O)Nc1ccc(SCc3ccncc3)cc1)CC2 [Example 62, 5-Methoxy-6-trifluoromethyl-1-[4-(pyridin-4-ylmethylthio)phenyl Carbamoyl]indoline] | 160 to 163 °C
CSc1cc2c(cc1C(F)(F)F)N(C(=O)Nc1ccc(Oc3ccc(C)nc3)nc1)CC2 [Example 66, 5-Methylthio-6-trifluoromethyl-1-[6-(6-methylpyridin-3-yloxy)pyridin-3-ylcarbamoyl]indoline] | 206 to 208 °C
CSc1cc2c(cc1C(F)(F)F)N(C(=O)Nc1ccc(C(=O)NCc3cccnc3)cc1)CC2 [Example 68, 5-Methylthio-6-trifluoromethyl-1-[4-(pyrid-3-ylmethyl)amido Phenyl Carbamoyl]indoline] | > 250 °C
COc1cc2c(cc1C(F)(F)F)N(C(=O)Nc1ccc3c(ccn3Cc3cccnc3)c1)CC2 [Example 71, 1-(1-(3-Pyridylmethyl)-5-indolylcarbamoyl)-5-methoxy-6-trifluoromethylindoline] | 243 to 246 °C
COc1cc2c(cc1C(F)(F)F)N(C(=O)Nc1ccc3c(ccn3Cc3ccncc3)c1)CC2 [Example 72, 1-(1-(4-Pyridylmethyl)-5-indolylcarbamoyl)-5-methoxy-6-trifluoromethylindoline] | 215 to 218 °C
COc1cc2c(cc1C(F)(F)F)N(C(=O)Nc1ccc3c(ccn3-c3cccnc3)c1)CC2 [Example 73, 1-(1-(3-Pyridyl)-5-indolylcarbamoyl)-5-methoxy-6-trifluoromethyl Indoline] | 202 to 204 °C
COc1cc2c(cc1C(F)(F)F)N(C(=O)Nc1ccc(Oc3cnccc3C)nc1)CC2 [Example 82, 5-Methoxy-6-trifluoromethyl-1-[6-(4-methylpyridin-3-yloxy)pyridin-3-ylcarbamoyl]indoline] | 188 to 191 °C
COc1cc2c(cc1C(F)(F)F)N(C(=O)Nc1cccc(-c3cnc4ccccc4c3)c1)CC2 [Example 86] | 240 °C (dec.)
COc1cc2c(cc1C(F)(F)F)N(C(=O)Nc1ccc(-c3ccccc3)nc1)CC2 [Example 94] | 204 to 207 °C
COc1cc2c(cc1C(F)(F)F)N(C(=O)Nc1ccc(-n3cccn3)nc1)CC2 [Example 96] | > 225 °C
COc1cc2c(cc1C(F)(F)F)N(C(=O)Nc1cccc(-c3ccc(N(C)C)cc3)c1)CC2 [Example 97] | 213 to 215 °C
COc1cc2c(cc1C(F)(F)F)N(C(=O)Nc1cccc(-c3ccc(CN(C)C)cc3)c1)CC2 [Example 98] | 209 to 211 °C
COc1cc2c(cc1C(F)(F)F)N(C(=O)Nc1cccc(-c3cccc(CN(C)C)c3)c1)CC2 [Example 99] | 185 to 187 °C
COc1cc2c(cc1C(F)(F)F)N(C(=O)Nc1cccc(-c3noc(CN(C)C)n3)c1)CC2 [Example 100] | 154 to 155 °C

More lines, now with the values ahead:

melting point | Structure (SMILES)
202 to 203 °C | CSc1cc2c(cc1C(F)(F)F)N(C(=O)Nc1cc(F)cc(-c3cccnc3)c1)CC2 (as salt: hydrochloride) [Example 25, 1-(3-Fluoro-5-(pyrid-3-yl)phenylcarbamoyl)5-thiomethyl-6-trifluoromethyl-indoline Hydrochloride]
> 230 °C | COc1cc2c(cc1C(F)(F)F)N(C(=O)Nc1ccc(-c3cccnc3)cc1)CC2 [Example 4, 1-[(3-Pyridyl)-4-phenyl Carbamoyl]-5-methoxy-6-trifluoromethylindoline]
233 °C (dec.) | COc1cc2c(cc1C(F)(F)F)N(C(=O)Nc1cc(-c3cccnc3)ccc1F)CC2 [Example 9, 1-[2-Fluoro-5-(3-pyridyl) Phenyl Carbamoyl]-5-methoxy-6-trifluoromethyl Indoline]
208 to 214 °C | CSc1cc2c(cc1C(F)(F)F)N(C(=O)Nc1cncc(-c3ccccc3)c1)CC2 [Example 11, 1-(5-Phenyl Pyrid-3-yl Carbamoyl)-5-methylthio-6-trifluoromethyl Indoline]
113 to 114 °C | COc1cc2c(cc1C(F)(F)F)N(C(=O)Nc1cncc(-c3cccnc3)c1)CC2 [Example 12, 1-[5-(3-Pyridyl)-pyrid-3-yl Carbamoyl]-5-methoxy-6-trifluoromethyl Indoline]
199 to 202 °C | COc1cc2c(cc1C(F)(F)F)N(C(=O)Nc1cncc(-c3ccc(C(F)(F)F)cc3)c1)CC2 [Example 13, 1-[5-(4-Trifluoromethylphenyl)-pyrid-3-yl Carbamoyl]-5-methoxy-6-trifluoromethyl Indoline]
190 to 191 °C | COc1cc2c(cc1C(F)(F)F)N(C(=O)Nc1cncc(-c3ccc(C)cc3)c1)CC2 [Example 14, 1-[5-(4-Methylphenyl)-pyrid-3-yl Carbamoyl]-5-methoxy-6-trifluoromethyl Indoline]
193 to 208 °C | COc1cc2c(cc1C(F)(F)F)N(C(=O)Nc1cncc(-c3cccs3)c1)CC2 [Example 15, 1-[5-(2-Thienyl)-pyrid-3-yl Carbamoyl]-5-methoxy-6-trifluoromethyl Indoline]
165 to 167 °C | COc1cc2c(cc1C(F)(F)F)N(C(=O)Nc1cncc(-c3ccsc3)c1)CC2 [Example 16, 1-[5-(3-Thienyl)-pyrid-3-yl Carbamoyl]-5-methoxy-6-trifluoromethyl Indoline]
218 to 219 °C | COc1cc2c(cc1C(F)(F)F)N(C(=O)Nc1cncc(-c3ccc[nH]3)c1)CC2 [Example 17, 1-[5-(2-Pyrrolyl)-pyrid-3-yl Carbamoyl]-5-methoxy-6-trifluoromethyl Indoline]
230 to 234 °C | COc1cc2c(cc1C(F)(F)F)N(C(=O)Nc1cncc(-c3ccncc3)c1)CC2 [Example 18, 1-[5-(4-Pyridyl)-pyrid-3-yl Carbamoyl]-5-methoxy-6-trifluoromethyl Indoline]
217 to 219 °C | COc1cc2c(cc1C(F)(F)F)N(C(=O)Nc1cncc(-c3c(F)cccc3F)c1)CC2 [Example 22, 1-(5-(2,6-Difluorophenyl)-3-pyridylcarbamoyl)-5-methoxy-6-trifluoromethylindoline]
216 to 218 °C | COc1cc2c(cc1C(F)(F)F)N(C(=O)Nc1cc(Br)c(C)c(-c3cccnc3)c1)CC2 [Example 33, 1-[3-Bromo-4-methyl-5-(3-pyridyl)phenylcarbamoyl]-5-methoxy-6-trifluoromethylindoline]
> 270 °C | COc1cc2c(cc1C(F)(F)F)N(C(=O)Nc1ccc(-c3cccnc3)nc1)CC2 [Example 36, 1-[6-(3-Pyridyl)-pyrid-3-ylcarbamoyl]-5-methoxy-6-trifluoromethylindoline]
223 to 225 °C | COc1cc2c(cc1C(F)(F)F)N(C(=O)Nc1ccnc(Oc3cccnc3)c1)CC2 [Example 64]
208 to 210 °C | COc1cc2c(cc1C(F)(F)F)N(C(=O)Nc1ccc(Sc3cccnc3)nc1)CC2 [Example 67, 5-Methoxy-6-trifluoromethyl-1-[6-(pyridin-3-ylthio)pyridin-3-ylcarbamoyl]indoline]
192 to 193 °C | COc1cc2c(cc1C(F)(F)F)N(C(=O)Nc1cccc(-c3cccnc3)c1)CC2 [Example 83]
196 to 197 °C | COc1cc2c(cc1C(F)(F)F)N(C(=O)Nc1cccc(-c3cccnc3)c1OC)CC2 [Example 84]
214 to 216 °C | COc1cc2c(cc1C(F)(F)F)N(C(=O)Nc1cccc(-c3cccnc3)c1Cl)CC2 [Example 85]
> 200 °C | COc1cc2c(cc1C(F)(F)F)N(C(=O)Nc1cncc(-c3ccc(F)cc3)c1)CC2 [Example 87]
226 to 229 °C | COc1cc2c(cc1C(F)(F)F)N(C(=O)Nc1cncc(-c3cc(F)cc(F)c3)c1)CC2 [Example 88]
198 to 199 °C | COc1cc2c(cc1C(F)(F)F)N(C(=O)Nc1cncc(-c3ccc(Cl)cc3)c1)CC2 [Example 89]
103 to 105 °C | COc1cc2c(cc1C(F)(F)F)N(C(=O)Nc1cncc(-c3ccccc3C)c1)CC2 [Example 90]
114 to 116 °C | COc1cc2c(cc1C(F)(F)F)N(C(=O)Nc1cncc(-c3ccccc3C=O)c1)CC2 [Example 91]
190 to 192 °C | COc1cc2c(cc1C(F)(F)F)N(C(=O)Nc1cncc(-c3ccccc3CO)c1)CC2 [Example 92]
113 to 115 °C | COc1cc2c(cc1C(F)(F)F)N(C(=O)Nc1cncc(-c3ccc(F)c(Cl)c3)c1)CC2 [Example 93]
> 225 °C | COc1cc2c(cc1C(F)(F)F)N(C(=O)Nc1ccc(-c3cccnc3)cn1)CC2 [Example 95]
> 240 °C | COc1cc2c(cc1C(F)(F)F)N(C(=O)Nc1cccc(-c3ccc[nH]3)c1)CC2 [Example 102]
